Laboratory results from patent publication US9896441B2 (Lycera Corporation, priority 2014, dated 2018).

Key:
RORγ-LBD = target: T1, RORγ-LBD (Homo sapiens, UniProt P51449); experiment: RORγ-Ligand Binding Domain (LBD) TR-FRET Assay; format: biochemical; conditions: for TR-FRET Assay Max Response: maximum response;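 for TR-FRET Assay Max Response: 665/615 nm signal ratio set to 100 without ursolic acid or test compound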
T1 construct: made in house; host or cells: SF9 cells (baculovirus); used as diluted lysate
T1 sequence (P51449 269-508 limits assumed): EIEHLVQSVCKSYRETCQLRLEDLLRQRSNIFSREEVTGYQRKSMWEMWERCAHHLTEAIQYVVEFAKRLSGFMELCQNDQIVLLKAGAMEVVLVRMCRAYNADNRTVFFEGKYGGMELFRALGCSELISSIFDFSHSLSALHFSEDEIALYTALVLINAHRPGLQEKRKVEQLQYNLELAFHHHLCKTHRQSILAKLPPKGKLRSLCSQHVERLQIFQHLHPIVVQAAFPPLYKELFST
Summary of the method: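 TR-FRET read-out using a biotin-tagged SRC1 coactivator LXXLL peptide (200 nM final), with the antagonist ursolic acid present at 2 μM final. Receptor is His-tagged LBD expressed in SF9 cells, ~3 nM final in pH 7.0 Tris/KCl/EDTA/DTT/BSA buffer; compounds in 1% DMSO final.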

Gal4-RORγ-LBD = target: T2, Gal4-RORγ-LBD (Homo sapiens, UniProt P51449); experiment: Gal4-RORγ Luciferase Reporter Assay in HEK-293T Cells; format: cell-based; conditions: HEK-293 cells, luciferase reporter; for Gal4-RORγ Assay Max Response: maximum response
T2 construct: expressed in transfected cells
T2 sequence (P51449 269-508 limits assumed): T1 sequence (P51449 269-508 limits assumed)
Summary of the method: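 Max Response was taken as the upper plateau of a 4-parameter logistic fit of luciferase signal, normalized to 100 for wells without ursolic acid or compound. Transiently Gal4-RORγ-LBD/Gal4-luc transfected HEK-293 cells carrying […] ursolic acid were incubated with test compounds (0.2% DMSO) overnight at 37 °C and read with One-Glo.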

| EC50 (RORγ-LBD; RORγ-LBD TR-FRET) | EC50 (Gal4-RORγ-LBD; with ursolic acid) | EC50 (RORγ-LBD; RORγ-LBD TR-FRET assay) | EC50 (Gal4-RORγ-LBD; in presence of ursolic acid) | SMILES | TR-FRET Assay Max Response (RORγ-LBD; RORγ-LBD TR-FRET assay) | Gal4-RORγ Assay Max Response (Gal4-RORγ-LBD; in presence of ursolic acid) |
| --- | --- | --- | --- | --- | --- | --- |
| < 500 nM | < 500 nM | – | – | C/C(=C\c1ccc2c(c1)N(S(=O)(=O)c1cccc(C(F)(F)F)c1)C[C@H]([C@H](C)O)O2)c1c(F)cccc1Cl [Example 96, (S)-1-((R)-6-((E)-2-(2-Chloro-6-fluorophenyl)prop-1-en-1-yl)-4-((3-(trifluoromethyl)phenyl)sulfonyl)-3,4-dihydro-2H-benzo[b][1,4]oxazin-2-yl)ethan-1-ol] | – | – |
| < 500 nM | < 500 nM | – | – | CCn1cc(S(=O)(=O)N2C[C@H]([C@H](C)O)Oc3ccc(/C=C(\C)c4c(F)cccc4Cl)cc32)c(Cl)n1 [Example 97, (S)-1-((R)-4-((3-Chloro-1-ethyl-1H-pyrazol-4-yl)sulfonyl)-6-((E)-2-(2-chloro-6-fluorophenyl)prop-1-en-1-yl)-3,4-dihydro-2H-benzo[b][1,4]oxazin-2-yl)ethan-1-ol] | – | – |
| < 500 nM | < 500 nM | – | – | C/C(=C\c1ccc2c(c1)N(S(=O)(=O)c1cccc(C(F)(F)F)c1)C[C@H]([C@@H](C)O)O2)c1c(F)cccc1Cl [Example 98, (R)-1-((R)-6-((E)-2-(2-Chloro-6-fluorophenyl)prop-1-en-1-yl)-4-((3-(trifluoromethyl)phenyl)sulfonyl)-3,4-dihydro-2H-benzo[b][1,4]oxazin-2-yl)ethan-1-ol] | – | – |
| < 500 nM | 500 to 5000 nM | – | – | CCn1cc(S(=O)(=O)N2C[C@H]([C@@H](C)O)Oc3ccc(/C=C(\C)c4c(F)cccc4Cl)cc32)c(Cl)n1 [Example 99, (R)-1-((R)-4-((3-Chloro-1-ethyl-1H-pyrazol-4-yl)sulfonyl)-6-((E)-2-(2-chloro-6-fluorophenyl)prop-1-en-1-yl)-3,4-dihydro-2H-benzo[b][1,4]oxazin-2-yl)ethan-1-ol] | – | – |
| < 500 nM | 500 to 5000 nM | – | – | C/C(=C\c1ccc2c(c1)N(S(=O)(=O)c1cccc(C(F)(F)F)c1)C[C@H]([C@@H](C)N)O2)c1c(F)cccc1Cl [Example 100, (R)-1-((R)-6-((E)-2-(2-Chloro-6-fluorophenyl)prop-1-en-1-yl)-4-((3-(trifluoromethyl)phenyl)sulfonyl)-3,4-dihydro-2H-benzo[b][1,4]oxazin-2-yl)ethan-1-amine] | – | – |
| < 500 nM | > 10000 nM | – | – | CCn1cc(S(=O)(=O)N2C[C@H]([C@@H](C)N)Oc3ccc(/C=C(\C)c4c(F)cccc4Cl)cc32)c(Cl)n1 [Example 101, (R)-1-((R)-4-((3-Chloro-1-ethyl-1H-pyrazol-4-yl)sulfonyl)-6-((E)-2-(2-chloro-6-fluorophenyl)prop-1-en-1-yl)-3,4-dihydro-2H-benzo[b][1,4]oxazin-2-yl)ethan-1-amine] | – | – |
| < 500 nM | < 500 nM | – | – | CCn1cc(S(=O)(=O)N2C[C@H]([C@@H](C)NC(C)=O)Oc3ccc(/C=C(\C)c4c(F)cccc4Cl)cc32)c(Cl)n1 [Example 102, N—((R)-1-((R)-4-((3-Chloro-1-ethyl-1H-pyrazol-4-yl)sulfonyl)-6-((E)-2-(2-chloro-6-fluorophenyl)prop-1-en-1-yl)-3,4-dihydro-2H-benzo[b][1,4]oxazin-2-yl)ethyl)acetamide] | – | – |
| < 500 nM | < 500 nM | – | – | CC(=O)N[C@H](C)[C@H]1CN(S(=O)(=O)c2cccc(C(F)(F)F)c2)c2cc(/C=C(\C)c3c(F)cccc3Cl)ccc2O1 [Example 103, N—((R)-1-((R)-6-((E)-2-(2-Chloro-6-fluorophenyl)prop-1-en-1-yl)-4-((3-(trifluoromethyl)phenyl)sulfonyl)-3,4-dihydro-2H-benzo[b][1,4]oxazin-2-yl)ethyl)acetamide] | – | – |
| – | – | < 500 nM | > 10000 nM | CCn1cc(S(=O)(=O)N2C[C@H]([C@@H](C)NS(C)(=O)=O)Oc3ccc(/C=C(\C)c4c(F)cccc4Cl)cc32)c(Cl)n1 [Example 104, N—((R)-1-((R)-4-((3-Chloro-1-ethyl-1H-pyrazol-4-yl)sulfonyl)-6-((E)-2-(2-chloro-6-fluorophenyl)prop-1-en-1-yl)-3,4-dihydro-2H-benzo[b][1,4]oxazin-2-yl)ethyl)methanesulfonamide] | *** (a value in the range of greater than 150 to 200) | – |
| – | – | < 500 nM | < 500 nM | C/C(=C\c1ccc2c(c1)N(S(=O)(=O)c1cccc(C(F)(F)F)c1)C[C@H]([C@@H](C)NS(C)(=O)=O)O2)c1c(F)cccc1Cl [Example 105, N—((R)-1-((R)-6-((E)-2-(2-Chloro-6-fluorophenyl)prop-1-en-1-yl)-4-((3-(trifluoromethyl)phenyl)sulfonyl)-3,4-dihydro-2H-benzo[b][1,4]oxazin-2-yl)ethyl)methanesulfonamide] | ** (a value in the range of greater than 90 to 150) | ** (a value in the range of greater than 90 to 150) |
| – | – | < 500 nM | < 500 nM | C/C(=C\c1ccc2c(c1)N(S(=O)(=O)c1cccc(C(F)(F)F)c1)C[C@H](CCO)O2)c1c(F)cccc1Cl [Example 106, (S,E)-2-(6-(2-(2-Chloro-6-fluorophenyl)prop-1-en-1-yl)-4-((3-(trifluoromethyl)phenyl)sulfonyl)-3,4-dihydro-2H-benzo[b][1,4]oxazin-2-yl)ethanol] | *** (a value in the range of greater than 150 to 200) | ** (a value in the range of greater than 90 to 150) |
| – | – | < 500 nM | 500 to 5000 nM | C/C(=C\c1ccc2c(c1)N(S(=O)(=O)c1cccc(C(F)(F)F)c1)C[C@H](CC(=O)O)O2)c1c(F)cccc1Cl [Example 107, (S,E)-2-(6-(2-(2-Chloro-6-fluorophenyl)prop-1-en-1-yl)-4-((3-(trifluoromethyl)phenyl)sulfonyl)-3,4-dihydro-2H-benzo[b][1,4]oxazin-2-yl)acetic acid] | ** (a value in the range of greater than 90 to 150) | ** (a value in the range of greater than 90 to 150) |
| – | – | < 500 nM | < 500 nM | COc1cc(S(=O)(=O)N2C[C@H](CNC(C)=O)Oc3c(F)cc(/C=C(\C)c4c(F)cccc4Cl)cc32)ccc1F [Example 108, (S,E)-N-((6-(2-(2-Chloro-6-fluorophenyl)prop-1-en-1-yl)-8-fluoro-4-((4-fluoro-3-methoxyphenyl)sulfonyl)-3,4-dihydro-2H-benzo[b][1,4]oxazin-2-yl)methyl)acetamide] | ** (a value in the range of greater than 90 to 150) | * (a value in the range of 30 to 90) |
| – | – | < 500 nM | < 500 nM | CCn1cc(S(=O)(=O)N2C[C@H](CNC(C)=O)Oc3c(F)cc(/C=C(\C)c4c(F)cccc4Cl)cc32)c(Cl)n1 [Example 109A, (S,E)-N-((4-((3-chloro-1-ethyl-1H-pyrazol-4-yl)sulfonyl)-6-(2-(2-chloro-6-fluorophenyl)prop-1-en-1-yl)-8-fluoro-3,4-dihydro-2H-benzo[b][1,4]oxazin-2-yl)methyl)acetamide] | *** (a value in the range of greater than 150 to 200) | * (a value in the range of 30 to 90) |
| – | – | < 500 nM | < 500 nM | COc1cc(S(=O)(=O)N2C[C@H](CNC(C)=O)Oc3ccc(/C=C(\C)c4c(F)cccc4Cl)cc32)ccc1F [Example 109B, (S,E)-N-((6-(2-(2-chloro-6-fluorophenyl)prop-1-en-1-yl)-4-((4-fluoro-3-methoxyphenyl)-sulfonyl)-3,4-dihydro-2H-benzo[b][1,4]oxazin-2-yl)methyl)acetamide] | ** (a value in the range of greater than 90 to 150) | * (a value in the range of 30 to 90) |
| – | – | < 500 nM | < 500 nM | CC(=O)NC[C@H]1CN(S(=O)(=O)c2cccc(C(F)(F)F)c2)c2cc(/C=C(\C)c3c(F)cccc3Cl)ccc2O1 [Example 109C, (S,E)-N-((6-(2-(2-chloro-6-fluorophenyl)prop-1-en-1-yl)-4-((3-(trifluoromethyl)phenyl)-sulfonyl)-3,4-dihydro-2H-benzo[b][1,4]oxazin-2-yl)methyl)acetamide] | ** (a value in the range of greater than 90 to 150) | ** (a value in the range of greater than 90 to 150) |
| – | – | < 500 nM | 500 to 5000 nM | CCn1cc(S(=O)(=O)N2C[C@H](CNC(C)=O)Oc3ccc(/C=C/c4c(F)cccc4Cl)cc32)c(Cl)n1 [Example 109D, (S,E)-N-((4-((3-chloro-1-ethyl-1H-pyrazol-4-yl)sulfonyl)-6-(2-chloro-6-fluorostyryl)-3,4-dihydro-2H-benzo[b][1,4]oxazin-2-yl)methyl)acetamide] | *** (a value in the range of greater than 150 to 200) | ** (a value in the range of greater than 90 to 150) |
